Measured values: ChEMBL document CHEMBL5620355, “Discovery of intracellular self-assembly protein degraders driven by tumor-specific activatable bioorthogonal reaction” (Eur J Med Chem, 2023)
The source made the active and inactive calls. No cut-off for these calls is given here.

Tests used:
U-87 MG [1] = assay: Induction of apoptosis in human U87 cells assessed as early apoptotic cells at 1 uM incubated for 48 hrs in presence of 4-(4-(3-(4-chloro-3-(trifluoromethyl)phenyl)ureido)phenoxy)-N-(prop-2-yn-1-yl)picolinamide by Annexin V-FLTC/PI staining based flow cytometry (reference value: 8.95 %); assay type: functional, U-87MG ATCC
[2] = target: Serine/threonine-protein kinase B-raf (Homo sapiens) (UniProt P15056); assay: Induction of BRAF degradation in human U87 cells at 10 uM incubated for 48 hrs in presence of 4-(4-(3-(4-chloro-3-(trifluoromethyl)phenyl)ureido)phenoxy)-N-(prop-2-yn-1-yl)picolinamide by Western blot analysis; assay type: cell-based
Chain of Serine/threonine-protein kinase B-raf (Homo sapiens) (P15056 whole entry): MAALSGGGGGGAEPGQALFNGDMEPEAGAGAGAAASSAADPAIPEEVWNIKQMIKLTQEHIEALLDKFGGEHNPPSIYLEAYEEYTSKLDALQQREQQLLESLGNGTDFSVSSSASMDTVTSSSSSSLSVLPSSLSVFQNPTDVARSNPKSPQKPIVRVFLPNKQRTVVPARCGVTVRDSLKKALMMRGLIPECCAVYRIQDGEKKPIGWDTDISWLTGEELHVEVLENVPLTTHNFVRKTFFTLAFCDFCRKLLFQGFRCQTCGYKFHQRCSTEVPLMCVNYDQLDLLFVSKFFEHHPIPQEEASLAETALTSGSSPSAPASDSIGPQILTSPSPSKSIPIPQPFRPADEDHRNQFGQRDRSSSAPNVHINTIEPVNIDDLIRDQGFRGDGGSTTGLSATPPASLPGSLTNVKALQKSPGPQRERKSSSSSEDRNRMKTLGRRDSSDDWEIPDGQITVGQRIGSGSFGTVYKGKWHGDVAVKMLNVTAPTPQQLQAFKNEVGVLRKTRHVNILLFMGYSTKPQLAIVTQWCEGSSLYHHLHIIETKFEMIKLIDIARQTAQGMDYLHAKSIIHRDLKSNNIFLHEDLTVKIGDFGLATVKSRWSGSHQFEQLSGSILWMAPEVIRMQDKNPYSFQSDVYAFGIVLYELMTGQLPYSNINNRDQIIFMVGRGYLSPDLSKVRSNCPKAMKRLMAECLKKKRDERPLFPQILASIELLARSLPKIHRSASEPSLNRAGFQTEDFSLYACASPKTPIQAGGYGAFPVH

[3] = target: T1, Ephrin type-B receptor 4 (Homo sapiens) (UniProt P54760); assay: Induction of EphB4 degradation in human U87 cells at 10 uM incubated for 48 hrs in presence of 4-(4-(3-(4-chloro-3-(trifluoromethyl)phenyl)ureido)phenoxy)-N-(prop-2-yn-1-yl)picolinamide by Western blot analysis; assay type: cell-based
T1 sequence (whole entry): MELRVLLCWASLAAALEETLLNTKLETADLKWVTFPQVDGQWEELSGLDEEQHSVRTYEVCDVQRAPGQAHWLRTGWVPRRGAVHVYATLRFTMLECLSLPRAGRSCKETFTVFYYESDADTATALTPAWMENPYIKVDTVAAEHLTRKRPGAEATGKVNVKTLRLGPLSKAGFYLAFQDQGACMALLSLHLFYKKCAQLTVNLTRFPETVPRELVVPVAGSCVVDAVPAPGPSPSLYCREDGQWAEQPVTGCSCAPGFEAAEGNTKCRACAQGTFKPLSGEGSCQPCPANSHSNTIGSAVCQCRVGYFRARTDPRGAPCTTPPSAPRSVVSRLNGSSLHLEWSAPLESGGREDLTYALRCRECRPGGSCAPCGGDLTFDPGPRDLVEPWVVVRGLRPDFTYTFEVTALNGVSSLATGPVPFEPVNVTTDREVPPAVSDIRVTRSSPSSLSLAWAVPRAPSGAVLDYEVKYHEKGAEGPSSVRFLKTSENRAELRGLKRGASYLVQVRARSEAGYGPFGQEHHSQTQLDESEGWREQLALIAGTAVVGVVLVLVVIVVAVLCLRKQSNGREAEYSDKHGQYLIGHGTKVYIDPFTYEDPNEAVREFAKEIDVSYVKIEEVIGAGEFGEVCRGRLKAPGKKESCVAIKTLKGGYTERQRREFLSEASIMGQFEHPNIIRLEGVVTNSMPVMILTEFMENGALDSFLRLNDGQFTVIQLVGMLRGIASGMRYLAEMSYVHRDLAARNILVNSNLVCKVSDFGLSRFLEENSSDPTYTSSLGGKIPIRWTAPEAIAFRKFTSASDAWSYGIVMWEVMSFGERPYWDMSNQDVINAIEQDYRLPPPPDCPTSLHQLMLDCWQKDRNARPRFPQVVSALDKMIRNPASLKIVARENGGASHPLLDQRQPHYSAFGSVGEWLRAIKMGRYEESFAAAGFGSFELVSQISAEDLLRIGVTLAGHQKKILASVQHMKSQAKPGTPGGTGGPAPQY

[4] = target: Platelet-derived growth factor receptor beta (Homo sapiens) (UniProt P09619); assay: Induction of PDGFR-beta degradation in human U87 cells at 10 uM incubated for 48 hrs by Western blot analysis; assay type: cell-based
Chain of Platelet-derived growth factor receptor beta (Homo sapiens) (P09619 whole entry): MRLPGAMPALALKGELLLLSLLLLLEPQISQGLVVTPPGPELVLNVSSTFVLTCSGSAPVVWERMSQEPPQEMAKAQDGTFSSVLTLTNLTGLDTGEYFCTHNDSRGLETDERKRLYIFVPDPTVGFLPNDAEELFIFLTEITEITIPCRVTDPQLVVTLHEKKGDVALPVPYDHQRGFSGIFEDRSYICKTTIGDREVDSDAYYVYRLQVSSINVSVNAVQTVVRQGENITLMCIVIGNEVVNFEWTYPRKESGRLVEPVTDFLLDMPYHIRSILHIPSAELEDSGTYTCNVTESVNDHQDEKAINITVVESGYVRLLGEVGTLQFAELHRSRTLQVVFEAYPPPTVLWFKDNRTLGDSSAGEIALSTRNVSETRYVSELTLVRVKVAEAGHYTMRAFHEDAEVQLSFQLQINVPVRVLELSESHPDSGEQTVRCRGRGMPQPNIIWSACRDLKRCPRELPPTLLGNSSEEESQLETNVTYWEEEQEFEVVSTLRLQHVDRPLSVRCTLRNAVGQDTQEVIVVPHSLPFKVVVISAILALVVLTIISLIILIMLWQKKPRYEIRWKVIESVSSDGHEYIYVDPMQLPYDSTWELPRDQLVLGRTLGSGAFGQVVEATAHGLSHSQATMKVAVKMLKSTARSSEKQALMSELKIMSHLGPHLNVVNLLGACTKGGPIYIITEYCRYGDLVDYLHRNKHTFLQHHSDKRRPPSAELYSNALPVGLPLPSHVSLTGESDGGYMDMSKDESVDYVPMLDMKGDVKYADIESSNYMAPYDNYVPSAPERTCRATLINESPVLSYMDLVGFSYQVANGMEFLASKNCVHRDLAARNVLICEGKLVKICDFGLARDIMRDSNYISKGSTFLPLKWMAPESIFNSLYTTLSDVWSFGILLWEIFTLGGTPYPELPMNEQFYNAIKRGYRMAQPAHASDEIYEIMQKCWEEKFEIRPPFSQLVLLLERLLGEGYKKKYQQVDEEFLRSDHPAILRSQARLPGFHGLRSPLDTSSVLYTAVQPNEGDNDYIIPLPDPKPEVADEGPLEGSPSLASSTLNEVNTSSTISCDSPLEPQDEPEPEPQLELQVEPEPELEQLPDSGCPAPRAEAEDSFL

[5] = target: T1, Ephrin type-B receptor 4 (Homo sapiens); assay: Induction of EphB4 degradation in human U87 cells at 10 uM incubated for 48 hrs by Western blot analysis; assay type: cell-based
U-87 MG [6] = assay: Induction of apoptosis in human U87 cells assessed as viable cells at 5 uM incubated for 48 hrs in presence of 4-(4-(3-(4-chloro-3-(trifluoromethyl)phenyl)ureido)phenoxy)-N-(prop-2-yn-1-yl)picolinamide by Annexin V-FLTC/PI staining based flow cytometry (reference value: 86.74 %); assay type: functional, U-87MG ATCC; settings: read-out: Activity
U-87 MG [7] = assay: Antiproliferative activity against human U87 cells incubated for 48 hrs in presence of 4-azido-N-(2-(2,6-dioxopiperidin-3-yl)-1,3-dioxoisoindolin-4-yl)butanamide by MTT assay; assay type: functional, cell-based, U-87MG ATCC
HEK293 = assay: Cytotoxicity against HEK293 cells at low concentration incubated for 48 hrs in presence of 4-azido-N-(2-(2,6-dioxopiperidin-3-yl)-1,3-dioxoisoindolin-4-yl)butanamide by MTT assay; assay type: toxicity, cell-based; settings: human, hek293, 48 h
U-87 MG [8] = assay: (§1) Induction of apoptosis in human U87 cells assessed as early apoptotic cells at 0.1 uM incubated for 48 hrs in presence of (2S,4R)-1-((S)-2-(5-azidopentanamido)-3,3-dimethylbutanoyl)-4-hydroxy-N-(4-(4-methylthiazol-5-yl)benzyl)pyrrolidine-2-carboxamide by Annexin V-FLTC/PI staining based flow cytometry (reference value: 8.95 %); assay type: functional, U-87MG ATCC
U-87 MG [9] = assay: Induction of cell cycle arrest at S phase in human U87 cells incubated for 48 hrs in presence of (2S,4R)-1-((S)-2-(5-azidopentanamido)-3,3-dimethylbutanoyl)-4-hydroxy-N-(4-(4-methylthiazol-5-yl)benzyl)pyrrolidine-2-carboxamide by PI staining based flow cytometry; assay type: functional; settings: U-87MG ATCC, dose 0.1-1 µM
U-87 MG [10] = assay: as §1, with “10” for “0.1”; assay type: functional, U-87MG ATCC

Activity [2]	Activity [3]	Activity [4]	Activity [5]	IC50 (U-87 MG [7]) [µM]	Compound	Activity (U-87 MG [1]) [%]	viability at 5 µM (U-87 MG [6]) [%]	Activity (HEK293)	Activity (U-87 MG [8]) [%]	Activity (U-87 MG [9])	Activity (U-87 MG [10]) [%]
Active	Active	Active	Active	–	[N-]=[N+]=NCCCC(=O)Nc1cccc2c1C(=O)N(C1CCC(=O)NC1=O)C2=O (stereo unspecified)	11.69	1.48	–	–	–	–
–	–	–	–	5.68	C#CCNC(=O)c1cc(Oc2ccc(NC(=O)Nc3ccc(Cl)c(C(F)(F)F)c3)cc2)ccn1	–	–	Non-Toxic	10.27	Dose-Dependent Effect	0.08
